# Non-standard residues stand in square brackets, D forms with d. No end group written: not given here. Nle = CCCC[C@H](N)C(=O)O
# What was measured:
# [1] = tested on: HEK293 cell membranes (c-Met system); experiment: 125I-Norleual binding assay, HEK293 cell membranes; set-up: species or system human; conditions: 1.5 nM HGF or 1 μM Norleual
# Procedure: (§1) FIG. 3C: ^125I-Norleual was bound to HEK membranes in the presence or absence of 1.5 nM HGF (n=8) or 1 μM Norleual (n=6). Total binding is reported as percent control (n=10), (*p<0.001). Error bars indicate±SD. […] Error bars indicate SD and data points were performed in duplicate.
# ^125I-Norleual binding assay. HEK293 cells were grown to confluency in DMEM fortified with 10% FBS. Media was aspirated and cells were washed twice with ice-cold PBS. Cells were lysed with hypotonic buffer and homogenized as described by Zhang et al. (1999, J. Pharmacol. Exp. Ther. 289: 1075-1083; 2003 J. Cell Biochem. 88: 408-417). 450 μg of membrane protein was incubated with 1.5 nM ^125I-Norleual with or without Norleual or HGF in a total volume of 250 μl PBS, 0.1% BSA. Tubes were spun and binding was carried out for 60 minutes at RT. Bound and free ligands were separated by vacuum filtration using (Brandel Cell Harvester, Schleicher & Schull, Keene, N.H., USA) 32 glass filters. Radioactivity retained by the filters was measured using a gamma counter. […] Data analysis was preformed using Prism software (GraphicPad) per the supplier's recommendations.
# Materials and methods were as described in Example 1. In separate tests of unlabeled competitors, both Norleual and HGF competed with ^125I-HGF for high affinity binding to mouse liver plasma membranes (FIGS. 2A, 2B). […]
# c-Met receptor = experiment: Cross-linking of 125I-COMPOUND 2 or 125I-HGF to HEK293 cell membranes with unlabeled competitor; format: binding, human; conditions: 125I-HGF cross-linked to HEK293 cell membranes, FIG. 3B
# Procedure: as §1
# Briefly, COMPOUND 2 was iodinated with […] and bound and cross-linked to HEK cell membranes with or without 1 nM COMPOUND 2 or 1 nM hepatocyte growth factor. Following solubilization and separation of free label by molecular sieving, total radioactive counts were determined. The ability of the ligand COMPOUND 2 to compete with hepatocyte growth factor binding to the c-Met receptor was also tested using mouse liver plasma membranes and intact HEK293 cells. Briefly, mouse liver was homogenized and incubated with ^125I-HGF with various concentrations of HGF or COMPOUND 2. Membranes were pelleted and unbound label was removed by washing, and total radioactive counts were determined. Next, HEK293 cell membranes were cross-linked with ^125I-HGF with unlabeled HGF or COMPOUND 2.
# Erk1/2, Akt = experiment: Erk1/2 and Akt phosphorylation in HGF-treated B16-F10 cells (scratch wound assay); format: cell-based, murine
# Procedure: Immunoprecipitation and Western blotting. Cells were serum starved for two hours in DMEM before treatment. Cells were harvested using RIPA lysis buffer (Upstate Biotechnol. Inc., Lake Placid, N.Y.) with phosphatase inhibitor cocktails 1 and 2 (Sigma, St Louis, Mo., USA). Protein concentration was determined using the BCA assay (Pierce, Rockford, Ill., USA). Lysates were incubated with antibody overnight at 4° C. Immunoprecipitation controls received mouse non-specific Ig (Upstate). Proteins were captured with protein-A agarose (Upstate) and were washed with PBS. Proteins were resolved using SDS-PAGE electrophoresis (Criterion, BioRad, Hercules, Calif., USA), transferred to nitrocellulose, and incubated with appropriate antibodies. Proteins were visualized using the Supersignal West Pico Chemiluminescent Substrate system (Pierce). The film images were digitized and analyzed using TotalLab® software (AmershamPharmacia/GE HealthCare, Piscataway, N.J.).
# In addition, molecules associated with proliferation and migration signal transduction in B16-F10 melanoma cells were investigated in the scratch wound assay. HGF alone promoted enhanced phosphorylation of the signal transduction molecules Erk1/2, an effect that was attenuated by the presence of Norleual (FIG. 11B).
# c-Met = c-Met (Homo sapiens, UniProt P08581); experiment: HGF-induced Met/Gab1 association in HUVEC (IP/IB); format: cell-based; conditions: 5 minutes treatment
# c-Met, sequence (P08581 308-1390 limits assumed): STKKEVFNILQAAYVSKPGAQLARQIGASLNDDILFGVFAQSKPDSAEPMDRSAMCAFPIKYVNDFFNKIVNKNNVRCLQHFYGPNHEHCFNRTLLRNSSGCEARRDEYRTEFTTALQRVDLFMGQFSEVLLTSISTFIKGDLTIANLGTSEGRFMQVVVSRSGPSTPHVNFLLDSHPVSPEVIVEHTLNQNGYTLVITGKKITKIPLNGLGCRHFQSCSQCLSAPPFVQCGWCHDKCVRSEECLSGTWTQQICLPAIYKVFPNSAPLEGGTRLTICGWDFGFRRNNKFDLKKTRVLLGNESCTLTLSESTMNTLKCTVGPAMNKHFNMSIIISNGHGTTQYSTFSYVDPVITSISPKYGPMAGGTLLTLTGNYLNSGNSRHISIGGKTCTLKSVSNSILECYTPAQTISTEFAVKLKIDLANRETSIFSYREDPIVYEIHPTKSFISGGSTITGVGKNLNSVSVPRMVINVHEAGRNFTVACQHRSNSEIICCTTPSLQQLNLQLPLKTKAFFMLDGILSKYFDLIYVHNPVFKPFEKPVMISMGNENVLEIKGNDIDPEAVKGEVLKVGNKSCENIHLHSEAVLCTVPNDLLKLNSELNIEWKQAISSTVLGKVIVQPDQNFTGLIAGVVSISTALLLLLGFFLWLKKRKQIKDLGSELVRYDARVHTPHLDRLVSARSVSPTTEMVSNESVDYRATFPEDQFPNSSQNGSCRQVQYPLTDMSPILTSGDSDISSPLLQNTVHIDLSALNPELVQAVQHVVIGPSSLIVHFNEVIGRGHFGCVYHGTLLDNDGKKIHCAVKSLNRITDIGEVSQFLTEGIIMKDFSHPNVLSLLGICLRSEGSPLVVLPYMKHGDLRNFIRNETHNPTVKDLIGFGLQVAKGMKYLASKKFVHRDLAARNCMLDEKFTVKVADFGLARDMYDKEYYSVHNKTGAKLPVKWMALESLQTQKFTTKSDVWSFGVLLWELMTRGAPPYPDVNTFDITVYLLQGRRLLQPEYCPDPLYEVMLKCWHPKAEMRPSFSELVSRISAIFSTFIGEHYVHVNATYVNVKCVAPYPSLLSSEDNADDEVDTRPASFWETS
# c-Met, sequence (P08581 25-307 limits assumed): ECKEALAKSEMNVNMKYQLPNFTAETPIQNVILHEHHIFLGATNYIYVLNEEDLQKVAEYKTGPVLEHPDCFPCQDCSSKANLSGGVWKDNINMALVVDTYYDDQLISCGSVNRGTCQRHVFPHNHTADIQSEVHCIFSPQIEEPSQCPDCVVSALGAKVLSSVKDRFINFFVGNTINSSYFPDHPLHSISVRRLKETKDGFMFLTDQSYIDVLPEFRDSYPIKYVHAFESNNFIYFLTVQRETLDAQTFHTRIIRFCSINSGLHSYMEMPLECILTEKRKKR
# Procedure: FIG. 16 depicts inhibition of angiogenesis by Norleual (Compound 2, SEQ ID NO:43) in the mouse aortic ring assay. Rings were incubated in EGM-2 media (Cambrex) with (n=8) or without (n=6) 100 pM Norleual for four days. Digital photos of the rings were taken on day four. FIG. 16A: Quantification of aortic ring angiogenesis. Areas covered by angiogenic sprouts were quantified from day four ring photos, control (−) and Norelual treated (+) (p-value=0.012* and error bars indicate ±SEM). FIG. 16B: HUVECs were treated for 5 minutes with HGF and/or Norleual at indicated concentrations. Lysates were IP with anti-c-Met and IB with anti-c-Met or Gab1.
# Immunoprecipitation and Western blotting. Cells were serum starved for two hours in DMEM before treatment. Cells were harvested using RIPA lysis buffer (Upstate Biotechnol. Inc., Lake Placid, N.Y.) with phosphatase inhibitor cocktails 1 and 2 (Sigma, St Louis, Mo., USA). Protein concentration was determined using the BCA assay (Pierce, Rockford, Ill., USA). Lysates were incubated with antibody overnight at 4° C. Immunoprecipitation controls received mouse non-specific Ig (Upstate). […] The film images were digitized and analyzed using TotalLab® software (AmershamPharmacia/GE HealthCare, Piscataway, N.J.).
# See Example 1 for Materials and Methods. Angiogenesis was evaluated with the ex vivo mouse aortic ring assay in the presence and absence of Norleual. […]
# B16-F0 murine melanoma = experiment: Primary tumor melanoma cancer model; format: in vivo, C57BL/6 mice; conditions: male C57 mice, Elvax pellet intramuscular, 21 μg/kg/day
# human endothelial cells = experiment: Proliferation and migration of human endothelial cells; format: cell-based
# [2] = tested on: +SA WAZ-2T mouse mammary carcinoma cells; experiment: Orthotopic +SA WAZ-2T mammary carcinoma model; format: in vivo, Balb/c mice
# Procedure: This Example describes Norleaul effects in a mouse model of breast cancer in which animals were orthotopically injected with +SA WAZ-2T mouse mammary carcinoma cells (5×10^5) into the mammary fat pad of 11-week old female Balb/c mice. The +SA cell line was chosen due to its aggressive nature and ability to form highly vascularized tumors with 100% incidence per injection (Danielson et al., 1986). NORLEUAL (SEQ ID NO:43) was delivered via Elvax slow release pellets at doses of 0.3 mg/pellet, 0.03 mg/pellet, and 0.003 mg/pellet, implanted into the mammary glands immediately prior to tumor cell injection. These pellets provided an estimated continuous release of NORLEUAL at doses equivalent to 37.5 μg/kg/day, 3.75 μg/kg/day, and 0.375 μg/kg/day, respectively (based on in vitro release assays of pellets, data not shown). […] Tumor growth was monitored every 2-3 days, based on caliper measurements of the two longest diameters and calculating tumor volume.
substance,measurement,setting,value
Nle-Tyr-Leu-ψ-His-Pro-Phe ([Nle]YLHPF; also: reduced peptide bond psi(CH2NH2) between Leu and His) [Norleual],Competition for 125I-Norleual specific binding to HEK293 cell membranes,[1],competed
same,Mode of inhibition of HGF binding to the c-Met receptor,c-Met receptor,competitive inhibitor of HGF binding to the c-Met receptor
same,HGF-enhanced phosphorylation of Erk1/2,"Erk1/2, Akt",attenuated
same,HGF-induced Akt phosphorylation,"Erk1/2, Akt",did not affect
same,HGF-induced Met/Gab1 association in HUVEC,c-Met,inhibited
same,Primary B16-F0 murine melanoma growth,B16-F0 murine melanoma,inhibited
same,Proliferation and migration of human endothelial cells,human endothelial cells,inhibited
same,Tumor volume,"[2]; 0.003 mg/pellet, n=6",112.7±61 mm^3
same,Tumor mean vessel count/high power field (Factor VIII staining),"[2]; 0.3 mg/pellet, n=5, control 27.8±3",3.0±0.9
same,Delay in onset of palpable tumor mass,"[2]; 0.3 mg/pellet, n=6, control 7 day lag",up to 21 days
same,Inhibition of tumor volume compared to control,"[2]; most effective dose, 0.3 mg/pellet",97%
same,Visible vascularization of tumors removed at conclusion,[2]; treated tumors,total lack of visible vascularization
